What all share (assay type): cell-based
Experiment [1] concerns the target T1, F876L mutant Androgen Receptor (AR-F876L) (Homo sapiens (Human), UniProt P10275, F877L). The experiment can be described thus: LNCaP-AR-F876L AG reporter assay (agonist mode). The settings on record: for Emax: read-out: LNCaP-AR-F876L AG MAX % Stim; for EC50: pEC50 = −Log10(EC50 in Molar), read-out: LNCaP-AR-F876L AG pEC50 (converted). On the technique in general: A reporter such as luciferase makes a cellular process visible.

In experiment [2] the target is T1, F876L mutant Androgen Receptor (AR-F876L). As to the kind of experiment: LNCaP-AR-F876L ANT reporter assay (antagonist mode). The conditions noted are these: for Emax: read-out: LNCaP-AR-F876L ANT MAX % Inh; for IC50: pIC50 = −Log10(IC50 in Molar), read-out: LNCaP-AR-F876L ANT pIC50 (converted).
In experiment [3] the target is T2, wild-type Androgen Receptor (AR-wt) (Homo sapiens (Human), UniProt P10275). As to the kind of experiment: LNCaP-AR-wt ANT reporter assay (antagonist mode). The conditions noted are these: for Emax: read-out: LNCaP-AR-wt ANT MAX % Inh; for IC50: pIC50 = −Log10(IC50 in Molar), read-out: LNCaP-AR-wt ANT pIC50 (converted).
Experiment [4] concerns the target T2, wild-type Androgen Receptor (AR-wt). As to the kind of experiment: LNCaP-AR-wt AG reporter assay (agonist mode). The conditions noted are these: for Emax: read-out: LNCaP-AR-wt AG MAX % Stim; for EC50: pEC50 = −Log10(EC50 in Molar), read-out: LNCaP-AR-wt AG pEC50 (converted).
Where [5] appears, read: agonist mode, maximum % stimulation over tested concentration range.
[6] abbreviates: antagonist mode, maximum % inhibition of R1881 control response over tested concentration range.
Setting [7] is: maximum % stimulation (agonist response) over the tested concentration range.
[8] abbreviates: maximum % inhibition of R1881 control response over the tested concentration range.

14 molecules from patent publication US10981926B2 (Janssen Pharmaceutica NV, priority 2016, dated 2021) can be followed below.

SMILES strings stand for the structures.

T1 sequence (P10275 whole entry F877L): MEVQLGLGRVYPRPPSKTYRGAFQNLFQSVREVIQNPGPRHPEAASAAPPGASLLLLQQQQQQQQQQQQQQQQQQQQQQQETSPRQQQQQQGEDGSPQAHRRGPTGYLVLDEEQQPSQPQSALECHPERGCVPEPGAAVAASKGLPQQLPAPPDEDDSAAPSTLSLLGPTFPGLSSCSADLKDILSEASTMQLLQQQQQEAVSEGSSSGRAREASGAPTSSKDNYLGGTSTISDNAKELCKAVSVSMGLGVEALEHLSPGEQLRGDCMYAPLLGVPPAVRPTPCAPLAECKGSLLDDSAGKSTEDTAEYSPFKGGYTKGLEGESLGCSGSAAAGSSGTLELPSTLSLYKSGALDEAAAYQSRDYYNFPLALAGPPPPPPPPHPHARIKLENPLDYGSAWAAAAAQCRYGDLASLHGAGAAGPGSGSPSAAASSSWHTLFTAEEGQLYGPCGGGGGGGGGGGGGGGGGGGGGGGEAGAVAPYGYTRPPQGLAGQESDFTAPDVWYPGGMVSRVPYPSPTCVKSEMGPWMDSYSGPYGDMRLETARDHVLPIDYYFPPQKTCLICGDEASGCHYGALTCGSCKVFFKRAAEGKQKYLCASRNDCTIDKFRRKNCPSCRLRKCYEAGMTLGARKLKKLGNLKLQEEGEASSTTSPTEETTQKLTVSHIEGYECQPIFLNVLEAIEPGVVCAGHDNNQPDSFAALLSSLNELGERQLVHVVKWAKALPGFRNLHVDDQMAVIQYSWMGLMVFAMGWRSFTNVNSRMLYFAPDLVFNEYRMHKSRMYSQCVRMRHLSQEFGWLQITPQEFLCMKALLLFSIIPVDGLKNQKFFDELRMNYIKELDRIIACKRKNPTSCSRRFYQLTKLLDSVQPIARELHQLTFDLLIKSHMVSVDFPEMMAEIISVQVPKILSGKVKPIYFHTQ
T2 sequence (P10275 whole entry): as the sequence (P10275 whole entry F877L) above, with L877F counted along it

As for `CN1CC[C@@H](Oc2ccc(N3C(=S)N(c4cnc(C#N)c(C(F)(F)F)c4)C(=O)C34CCC4)cc2)C[C@H]1CO` (racemic) [Cpd 226, 5-[8-(2SR,4RS)[4-[[2-(hydroxymethyl)-1-methyl-4-piperidyl]oxy]phenyl]-5-oxo-7-thioxo-6,8-diazaspiro[3.4]octan-6-yl]-3-(trifluoromethyl)pyridine-2-carbonitrile], the Emax in experiment [1] (setting [5]) worked out at 0.2%; in experiment [2] (setting [6]), 100%; in experiment [3] (setting [6]), 101%; in experiment [4] (setting [5]), 0.4%. Besides, the EC50 in experiment [1] (agonist mode) and in experiment [4] (agonist mode) was greater than 15100 nM throughout. Moreover, the IC50 in experiment [2] (antagonist mode) is 36.3 nM; in experiment [3] (antagonist mode), 60.3 nM.

As to `COCCn1ncc2ccc(N3C(=S)N(c4cnc(C#N)c(C(F)(F)F)c4)C(=O)C34CCC4)cc21` [Cpd 160, 5-[8-[1-(2-methoxyethyl)indazol-6-yl]-5-oxo-7-thioxo-6,8-diazaspiro[3.4]octan-6-yl]-3-(trifluoromethyl)pyridine-2-carbonitrile], the EC50 in experiment [1] (agonist mode) and in experiment [4] (agonist mode) was greater than 15100 nM each time. Further, the Emax in experiment [1] (setting [7]) stood at 0%; in experiment [2] (setting [8]), 101%; in experiment [3] (setting [8]), 103%; in experiment [4] (setting [7]), 0.1%. In addition, the IC50 in experiment [2] (antagonist mode) is 708 nM; in experiment [3] (antagonist mode), 1230 nM.

In the case of `CN1CC(CNC(=O)c2ccc(N3C(=S)N(c4cnc(C#N)c(C(F)(F)F)c4)C(=O)C34CCC4)cc2)C1` [Cpd 216, 4-[6-[6-cyano-5-(trifluoromethyl)-3-pyridyl]-5-oxo-7-thioxo-6,8-diazaspiro[3.4]octan-8-yl]-N-[(1-methylazetidin-3-yl)methyl]benzamide], the Emax was 0% in experiment [1] (setting [5]), 98.7% in experiment [2] (setting [6]), 98.8% in experiment [3] (setting [6]) and 0.1% in experiment [4] (setting [5]). Moreover, the EC50 in experiment [1] (agonist mode) and in experiment [4] (agonist mode) was greater than 15100 nM throughout. The IC50 in experiment [2] (antagonist mode) is 1480 nM; in experiment [3] (antagonist mode), 1620 nM.

On to `COCCn1ncc2cc(N3C(=S)N(c4cnc(C#N)c(C(F)(F)F)c4)C(=O)C34CCC4)ccc21` [Cpd 170, 5-[8-[1-(2-methoxyethyl)indazol-5-yl]-5-oxo-7-thioxo-6,8-diazaspiro[3.4]octan-6-yl]-3-(trifluoromethyl)pyridine-2-carbonitrile], for which the EC50 in experiment [1] (agonist mode) and in experiment [4] (agonist mode) was greater than 15100 nM in each case. The Emax in experiment [1] (setting [7]) is 0.1%; in experiment [2] (setting [8]), 102%; in experiment [3] (setting [8]), 101%; in experiment [4] (setting [7]) it was 0.2%. Further, the IC50 was 309 nM in experiment [2] (antagonist mode) and 589 nM in experiment [3] (antagonist mode).

Take `CN1CCC[C@H](Oc2ccc(N3C(=S)N(c4cnc(C#N)c(C(F)(F)F)c4)C(=O)C34CCC4)cc2)C1` [Cpd 20, 5-{8-[4-((3S)-1-methyl(3-piperidyloxy))phenyl]-5-oxo-7-thioxo-6,8-diazaspiro[3.4]oct-6-yl}-3-(trifluoromethyl)pyridine-2-carbonitrile]: the EC50 in experiment [1] (agonist mode) and in experiment [4] (agonist mode) was greater than 15100 nM throughout. Besides, the Emax in experiment [1] (setting [7]) is -0.5%; in experiment [2] (setting [8]), 97.7%; in experiment [3] (setting [8]), 93.2%; in experiment [4] (setting [7]), 0.2%. Further, the figures for the IC50 in experiment [2] (antagonist mode) and in experiment [3] (antagonist mode) were 513 nM and 1820 nM, respectively.

Take `CN(C)C1(COc2ccc(N3C(=S)N(c4cnc(C#N)c(C(F)(F)F)c4)C(=O)C34CCC4)cc2)COC1` [Cpd 208, 5-[8-[4-[[3-(dimethylamino)oxetan-3-yl]methoxy]phenyl]-5-oxo-7-thioxo-6,8-diazaspiro[3.4]octan-6-yl]-3-(trifluoromethyl)pyridine-2-carbonitrile]: the Emax in experiment [1] (setting [5]) was 0%; in experiment [2] (setting [6]) it was 101%; in experiment [3] (setting [6]) it was 103%; in experiment [4] (setting [5]), 0%. The EC50 in experiment [1] (agonist mode) and in experiment [4] (agonist mode) was greater than 15100 nM throughout. Further, the IC50 in experiment [2] (antagonist mode) is 1020 nM; in experiment [3] (antagonist mode), 871 nM.

Regarding `CN1CCC(n2ccc3cc(N4C(=S)N(c5cnc(C#N)c(C(F)(F)F)c5)C(=O)C45CCC5)ccc32)CC1` [Cpd 251, 5-[8-[1-(1-methyl-4-piperidyl)indol-5-yl]-5-oxo-7-thioxo-6,8-diazaspiro[3.4]octan-6-yl]-3-(trifluoromethyl)pyridine-2-carbonitrile], the Emax in experiment [1] (setting [5]) is 0.1%; in experiment [2] (setting [6]) it was 101%; in experiment [3] (setting [6]) it was 0%; in experiment [4] (setting [5]) it was -0.1%. In addition, the EC50 in experiment [1] (agonist mode) and in experiment [4] (agonist mode) was greater than 15100 nM each time. For the same molecule, the IC50 in experiment [2] (antagonist mode) was 174 nM; in experiment [3] (antagonist mode), 288 nM.

In the case of `Cc1cc(N2C(=O)C3(CCC3)N(c3ccc(-c4cnn(C(N)=O)c4)cc3)C2=S)cnc1C#N` [Cpd 7, 4-{4-[7-(6-cyano-5-methyl(3-pyridyl))-8-oxo-6-thioxo-5,7-diazaspiro[3.4]oct-5-yl]phenyl}pyrazolecarboxamide], the EC50 in experiment [1] (agonist mode) and in experiment [4] (agonist mode) was greater than 15100 nM each time. Also, the Emax in experiment [1] (setting [7]) is 2.8%; in experiment [2] (setting [8]), 98.2%; in experiment [3] (setting [8]), 99.1%; in experiment [4] (setting [7]), 0.3%. The results for the IC50 in experiment [2] (antagonist mode) and in experiment [3] (antagonist mode) were 135 nM and 288 nM, respectively.

In the case of `COc1cc(N2C(=O)C3(CCC3)N(c3ccc4c(cnn4CCO)c3)C2=S)cnc1C#N` [Cpd 167, 5-[8-[1-(2-hydroxyethyl)indazol-5-yl]-5-oxo-7-thioxo-6,8-diazaspiro[3.4]octan-6-yl]-3-methoxy-pyridine-2-carbonitrile], the EC50 in experiment [1] (agonist mode) and in experiment [4] (agonist mode) was greater than 15100 nM each time. Further, the Emax in experiment [1] (setting [7]) was 0%; in experiment [2] (setting [8]), 102%; in experiment [3] (setting [8]), 101%; in experiment [4] (setting [7]), -0.2%. In addition, the IC50 was 288 nM in experiment [2] (antagonist mode) and 832 nM in experiment [3] (antagonist mode).

Take `CN1CC2CC1CC2Oc1ccc(N2C(=S)N(c3cnc(C#N)c(C(F)(F)F)c3)C(=O)C23CCC3)cc1` [Cpd 176, (R,S)-5-[8-[4-[(2-methyl-2-azabicyclo[2.2.1]heptan-5-yl)oxy]phenyl]-5-oxo-7-thioxo-6,8-diazaspiro[3.4]octan-6-yl]-3-(trifluoromethyl)pyridine-2-carbonitrile]: the EC50 in experiment [1] (agonist mode) and in experiment [4] (agonist mode) was greater than 15100 nM each time. In addition, the Emax in experiment [1] (setting [7]) is 0.1%; in experiment [2] (setting [8]), 101%; in experiment [3] (setting [8]), 104%; in experiment [4] (setting [7]), 0.3%. Moreover, the IC50 is 269 nM in experiment [2] (antagonist mode) and 479 nM in experiment [3] (antagonist mode).

Turning to `Cc1cc(N2C(=O)C3(CCC3)N(c3cnc(OC4CCN(C)CC4)nc3)C2=S)cnc1C#N` [Cpd 247, 3-Methyl-5-[8-[2-[(1-methyl-4-piperidyl)oxy]pyrimidin-5-yl]-5-oxo-7-thioxo-6,8-diazaspiro[3,4]octan-6-yl]pyridine-2-carbonitrile], the Emax is 0.2% in experiment [1] (setting [5]), 99.4% in experiment [2] (setting [6]), 0% in experiment [3] (setting [6]) and -0.1% in experiment [4] (setting [5]). Further, the EC50 in experiment [1] (agonist mode) and in experiment [4] (agonist mode) was greater than 15100 nM each time. Further, the IC50 was 1200 nM in experiment [2] (antagonist mode) and 1000 nM in experiment [3] (antagonist mode).

For the molecule `N#Cc1ncc(N2C(=O)C3(CCC3)N(c3ccc(OC4CC5CC4CN5)cc3)C2=S)cc1C(F)(F)F` [Cpd 150, (R,S)-5-[8-[4-(2-azabicyclo[2.2.1]heptan-5-yloxy)phenyl]-5-oxo-7-thioxo-6,8-diazaspiro[3.4]octan-6-yl]-3-(trifluoromethyl)pyridine-2-carbonitrile], the EC50 in experiment [1] (agonist mode) and in experiment [4] (agonist mode) was greater than 15100 nM each time. Also, the Emax in experiment [1] (setting [7]) was -0.2%; in experiment [2] (setting [8]), 103%; in experiment [3] (setting [8]), 102%; in experiment [4] (setting [7]), 0.4%. The IC50 in experiment [2] (antagonist mode) is 245 nM; in experiment [3] (antagonist mode), 490 nM.

Take `Cc1nc2cc(N3C(=S)N(c4cnc(C#N)c(C(F)(F)F)c4)C(=O)C34CCC4)ccc2[nH]1` [Cpd 245, 5-[8-(2-methyl-1H-benzimidazol-5-yl)-5-oxo-7-thioxo-6,8-diazaspiro[3.4]octan-6-yl]-3-(trifluoromethyl)pyridine-2-carbonitrile]: the Emax in experiment [1] (setting [5]) was 0.5%; in experiment [2] (setting [6]) it was 102%; in experiment [3] (setting [6]), 99.3%; in experiment [4] (setting [5]), 0%. The EC50 in experiment [1] (agonist mode) and in experiment [4] (agonist mode) was greater than 15100 nM in each case. Further, the IC50 in experiment [2] (antagonist mode) is 151 nM; in experiment [3] (antagonist mode), 479 nM.

In the case of `COc1ccc(N2C(=S)N(c3cnc(C#N)c(C(F)(F)F)c3)C(=O)C23CCC3)cn1` [Cpd 15, 5-[8-(6-methoxy-3-pyridyl)-5-oxo-7-thioxo-6,8-diazaspiro[3.4]octan-6-yl]-3-(trifluoromethyl)pyridine-2-carbonitrile], the EC50 in experiment [1] (agonist mode) and in experiment [4] (agonist mode) was greater than 15100 nM in each case. Besides, the Emax in experiment [1] (setting [7]) was 1.1%; in experiment [2] (setting [8]), 100%; in experiment [3] (setting [8]), 101%; in experiment [4] (setting [7]), -0.1%. The IC50 is 191 nM in experiment [2] (antagonist mode) and 240 nM in experiment [3] (antagonist mode).
